Source: patent US10770169B2, “Method of providing a treatment to a subject based on a dynamic pathway map” (THE REGENTS OF THE UNIVERSITY OF CALIFORNIA, priority 2010, dated 2020)
Read-outs that look alike come from different tables or passages of the source.

Test system: panel of 55 breast cancer cell lines
Experiment: Cell growth inhibition assay (Cell Titer Glo, 72 h, 9 doses; GI50, TGI, LC50)
Type: cell-based, human

CNC(=O)c1c(F)cccc1Nc1nc(Nc2cc3c(cc2OC)CCN3C(=O)CN(C)C)nc2[nH]ccc12 [GSK1838705A]
GI50 (600MPE cell line, censored GI50 values, value is the negative log10 of mol/L): 6.49 | GI50 (AU565 cell line, censored GI50 values, value is the negative log10 of mol/L): 5.63 | GI50 (BT20 cell line, censored GI50 values, value is the negative log10 of mol/L): 4.63 | GI50 (BT474 cell line, censored GI50 values, value is the negative log10 of mol/L): 5.08 | GI50 (BT483 cell line, censored GI50 values, value is the negative log10 of mol/L): 5.52 | GI50 (BT549 cell line, censored GI50 values, value is the negative log10 of mol/L): 5.21 | GI50 (CAMA1 cell line, censored GI50 values, value is the negative log10 of mol/L): 5.05 | GI50 (HCC38 cell line, censored GI50 values, value is the negative log10 of mol/L): 5.00 | GI50 (HCC70 cell line, censored GI50 values, value is the negative log10 of mol/L): 5.18 | GI50 (HCC202 cell line, censored GI50 values, value is the negative log10 of mol/L): 5.11 | GI50 (HCC1143 cell line, censored GI50 values, value is the negative log10 of mol/L): 5.55 | GI50 (HCC1187 cell line, censored GI50 values, value is the negative log10 of mol/L): 5.61 | GI50 (HCC1395 cell line, censored GI50 values, value is the negative log10 of mol/L): 5.28 | GI50 (HCC1419 cell line, censored GI50 values, value is the negative log10 of mol/L): 5.21 | GI50 (HCC1428 cell line, censored GI50 values, value is the negative log10 of mol/L): 5.79 | GI50 (HCC1500 cell line, censored GI50 values, value is the negative log10 of mol/L): 5.02 | GI50 (HCC1806 cell line, censored GI50 values, value is the negative log10 of mol/L): 4.27 | GI50 (HCC1937 cell line, censored GI50 values, value is the negative log10 of mol/L): 4.71 | GI50 (HCC1954 cell line, censored GI50 values, value is the negative log10 of mol/L): 5.08 | GI50 (HCC2185 cell line, censored GI50 values, value is the negative log10 of mol/L): 5.54 | GI50 (HCC3153 cell line, censored GI50 values, value is the negative log10 of mol/L): 5.26 | GI50 (LY2 cell line, censored GI50 values, value is the negative log10 of mol/L): 6.26 | GI50 (MCF7 cell line, censored GI50 values, value is the negative log10 of mol/L): 5.89 | GI50 (MDAMB134VI cell line, censored GI50 values, value is the negative log10 of mol/L): 5.06 | GI50 (MDAMB157 cell line, censored GI50 values, value is the negative log10 of mol/L): 5.05 | GI50 (MDAMB175VII cell line, censored GI50 values, value is the negative log10 of mol/L): 5.30 | GI50 (MDAMB231 cell line, censored GI50 values, value is the negative log10 of mol/L): 5.28 | GI50 (MDAMB361 cell line, censored GI50 values, value is the negative log10 of mol/L): 5.04 | GI50 (MDAMB415 cell line, censored GI50 values, value is the negative log10 of mol/L): 5.37 | GI50 (MDAMB436 cell line, censored GI50 values, value is the negative log10 of mol/L): 5.00 | GI50 (MDAMB453 cell line, censored GI50 values, value is the negative log10 of mol/L): 5.07 | GI50 (MDAMB468 cell line, censored GI50 values, value is the negative log10 of mol/L): 5.29 | GI50 (SKBR3 cell line, censored GI50 values, value is the negative log10 of mol/L): 5.16 | GI50 (SUM149PT cell line, censored GI50 values, value is the negative log10 of mol/L): 5.41 | GI50 (SUM159PT cell line, censored GI50 values, value is the negative log10 of mol/L): 5.46 | GI50 (SUM185PE cell line, censored GI50 values, value is the negative log10 of mol/L): 5.48 | GI50 (SUM225CWN cell line, censored GI50 values, value is the negative log10 of mol/L): 4.89 | GI50 (SUM1315MO2 cell line, censored GI50 values, value is the negative log10 of mol/L): 5.33 | GI50 (cell line 600MPE, value is the negative log10 of mol/L): 6.49 | GI50 (cell line AU565, value is the negative log10 of mol/L): 5.63 | GI50 (cell line BT20, value is the negative log10 of mol/L): 4.63

Cn1c(=O)n(-c2ccc(C(C)(C)C#N)cc2)c2c3cc(-c4cnc5ccccc5c4)ccc3ncc21 [BEZ235]
GI50 (Homo sapiens, AU565, AU565 cell line, censored GI50 values, read-out: GI50 (converted)): 257 nM | GI50 (Homo sapiens, AU565, cell line AU565, read-out: GI50 (converted)): 257 nM | GI50 (Homo sapiens, BT-20, BT20 cell line, censored GI50 values, read-out: GI50 (converted)): 3800 nM | GI50 (Homo sapiens, BT-20, cell line BT20, read-out: GI50 (converted)): 3800 nM | GI50 (Homo sapiens, BT-474, BT474 cell line, censored GI50 values, read-out: GI50 (converted)): 347 nM | GI50 (Homo sapiens, BT-474, cell line BT474, read-out: GI50 (converted)): 347 nM | GI50 (Homo sapiens, BT-483, BT483 cell line, censored GI50 values, read-out: GI50 (converted)): 11200 nM | GI50 (Homo sapiens, BT-483, cell line BT483, read-out: GI50 (converted)): 11200 nM | GI50 (Homo sapiens, CAMA-1, CAMA1 cell line, censored GI50 values, read-out: GI50 (converted)): 16600 nM | GI50 (Homo sapiens, CAMA-1, cell line CAMA1, read-out: GI50 (converted)): 16600 nM | GI50 (Homo sapiens, HCC38, HCC38 cell line, censored GI50 values, read-out: GI50 (converted)): 490 nM | GI50 (Homo sapiens, HCC38, cell line HCC38, read-out: GI50 (converted)): 490 nM | GI50 (Homo sapiens, HCC70, HCC70 cell line, censored GI50 values, read-out: GI50 (converted)): 158 nM | GI50 (Homo sapiens, HCC70, cell line HCC70, read-out: GI50 (converted)): 158 nM | GI50 (Homo sapiens, HCC1187, cell line HCC1187, read-out: GI50 (converted)): 33100 nM | GI50 (Homo sapiens, HCC1428, HCC1428 cell line, censored GI50 values, read-out: GI50 (converted)): 17000 nM | GI50 (Homo sapiens, HCC1428, cell line HCC1428, read-out: GI50 (converted)): 17000 nM | GI50 (Homo sapiens, HCC1954, HCC1954 cell line, censored GI50 values, read-out: GI50 (converted)): 52.5 nM | GI50 (Homo sapiens, HCC1954, cell line HCC1954, read-out: GI50 (converted)): 52.5 nM | GI50 (Homo sapiens, HCC2185 cell line, censored GI50 values, read-out: GI50 (converted)): 263 nM | GI50 (Homo sapiens, HCC3153 cell line, censored GI50 values, read-out: GI50 (converted)): 646 nM | GI50 (Homo sapiens, MCF7, MCF7 cell line, censored GI50 values, read-out: GI50 (converted)): 589 nM | GI50 (Homo sapiens, MCF7, cell line MCF7, read-out: GI50 (converted)): 589 nM | GI50 (Homo sapiens, MDA-MB-134-VI, MDAMB134VI cell line, censored GI50 values, read-out: GI50 (converted)): 1000 nM | GI50 (Homo sapiens, MDA-MB-175-VII, MDAMB175VII cell line, censored GI50 values, read-out: GI50 (converted)): 1150 nM | GI50 (Homo sapiens, MDA-MB-361, MDAMB361 cell line, censored GI50 values, read-out: GI50 (converted)): 813 nM | GI50 (Homo sapiens, MDA-MB-361, cell line MDAMB361, read-out: GI50 (converted)): 813 nM | GI50 (Homo sapiens, MDA-MB-415, MDAMB415 cell line, censored GI50 values, read-out: GI50 (converted)): 263 nM | GI50 (Homo sapiens, MDA-MB-415, cell line MDAMB415, read-out: GI50 (converted)): 263 nM | GI50 (Homo sapiens, MDA-MB-453, MDAMB453 cell line, censored GI50 values, read-out: GI50 (converted)): 132 nM | GI50 (Homo sapiens, MDA-MB-453, cell line MDAMB453, read-out: GI50 (converted)): 132 nM | GI50 (Homo sapiens, MDA-MB-468, cell line MDAMB468, read-out: GI50 (converted)): 33100 nM | GI50 (Homo sapiens, SK-BR-3, SKBR3 cell line, censored GI50 values, read-out: GI50 (converted)): 589 nM | GI50 (Homo sapiens, SK-BR-3, cell line SKBR3, read-out: GI50 (converted)): 589 nM | GI50 (Homo sapiens, SUM52PE, SUM52PE cell line, censored GI50 values, read-out: GI50 (converted)): 17000 nM | GI50 (Homo sapiens, SUM52PE, cell line SUM52PE, read-out: GI50 (converted)): 17000 nM | GI50 (Homo sapiens, SUM149PT, SUM149PT cell line, censored GI50 values, read-out: GI50 (converted)): 269 nM | GI50 (Homo sapiens, SUM149PT, cell line SUM149PT, read-out: GI50 (converted)): 269 nM | GI50 (Homo sapiens, SUM185PE, SUM185PE cell line, censored GI50 values, read-out: GI50 (converted)): 15100 nM | GI50 (Homo sapiens, SUM185PE, cell line SUM185PE, read-out: GI50 (converted)): 15100 nM | GI50 (Homo sapiens, SUM1315MO2, SUM1315MO2 cell line, censored GI50 values, read-out: GI50 (converted)): 224 nM | GI50 (Homo sapiens, SUM-159-PT, SUM159PT cell line, censored GI50 values, read-out: GI50 (converted)): 36.3 nM | GI50 (Homo sapiens, SUM-159-PT, cell line SUM159PT, read-out: GI50 (converted)): 36.3 nM | GI50 (Homo sapiens, T47D, T47D cell line, censored GI50 values, read-out: GI50 (converted)): 282 nM | GI50 (Homo sapiens, T47D, cell line T47D, read-out: GI50 (converted)): 282 nM | GI50 (Homo sapiens, UACC-812, UACC812 cell line, censored GI50 values, read-out: GI50 (converted)): 16600 nM | GI50 (Homo sapiens, UACC-812, cell line UACC812, read-out: GI50 (converted)): 16600 nM | GI50 (Homo sapiens, ZR-75-1, ZR751 cell line, censored GI50 values, read-out: GI50 (converted)): 16600 nM | GI50 (Homo sapiens, ZR-75-1, cell line ZR751, read-out: GI50 (converted)): 16600 nM | GI50 (Homo sapiens, ZR-75B, ZR75B cell line, censored GI50 values, read-out: GI50 (converted)): 141 nM | GI50 (Homo sapiens, ZR-75B, cell line ZR75B, read-out: GI50 (converted)): 141 nM | GI50 (Homo sapiens, cell line HCC2185, read-out: GI50 (converted)): 263 nM | GI50 (Homo sapiens, cell line HCC3153, read-out: GI50 (converted)): 646 nM | GI50 (Homo sapiens, cell line MDAMB134V, read-out: GI50 (converted)): 1000 nM | GI50 (Homo sapiens, cell line MDAMB175V, read-out: GI50 (converted)): 1150 nM | GI50 (Homo sapiens, cell line SUM1315MO, read-out: GI50 (converted)): 224 nM
